Results as given in patent US20020044943A1, “MUC-1 as an immunosuppressive therapeutic agent for the treatment of inflammatory and autoimmune conditions” (priority 1997, published 2002).

Columns and labels:
[1] = test system: GZ-Hi tumor cells; assay: Tumor take after i.v. MUC-1 mucin and subcutaneous tumor challenge; format: in vivo; settings: CB6 mice, MUC-1 mucin 20 micrograms i.v. on days -2, +2, +6; 1x10^6 GZ-Hi cells s.c.; observed 8 weeks
Protocol: The procedures employed in this example are similar to those described in Fung, et al. Cancer Research 51:1170-1176 (1991), which is hereby incorporated by reference. However, in the present example, the human MUC-1 system was used instead of the epiglycanin system.
CB6 mice were injected intravenously with MAb B27.29 affinity purified MUC-1 mucin (20 micrograms each treatment or approximately 400 units) prior to (day-2) and after (days +2 and +6) an attempted tumor challenge. Affinity purified mucin had been prepared by affinity adsorption on a B 27.29 CnBr-Sepharose matrix from a pleural effusion fluid obtained from a patient with adenocarcinoma of the ovaries. MUC-1 mucin treated and control mice were challenged with 1×10^6 GZ-Hi tumor cells injected into the subcutaneous space along the flank. Mice were observed by palpation and visual inspection at the injection site for the occurrence of tumors over a period of 8 weeks.

[2] = test system: human T-cell cultures; assay: Mixed lymphocyte reaction (allo-antigenic T-cell proliferation); format: cell-based; settings: B27.29 affinity purified MUC-1 mucin, various doses, in vitro
Protocol: The mixed lymphocyte reaction is conducted by mixing the lymphocytes of HLA disparate individuals in in vitro tissue cultures. The “responder population” in this experiment is purified T-cells from one population, while the “stimulator” population in this experiment is the adherent antigen presenting cells obtained from an HLA mismatched individual donor. The two cell populations were mixed and cultured either in the presence or absence of various doses of B27.29 affinity purified MUC-1 mucin that was purified from a pleural effusion fluid.

[3] = molecular target: T1, recombinant human ICAM-1-Ig fusion protein (Homo sapiens, UniProt P05362); assay: Tumor cell-immobilized ICAM-1 adhesion assay; format: cell-based; settings: antibodies 10 or 20 ug/mL, soluble MUC-1 10 ug/mL
T1 construct: coated with 50 uL of a solution with 20 ug/mL recombinant soluble ICAM-1 in PBS; Ig (immunoglobulin) fusion partner
T1 sequence (P05362 28-480 limits assumed): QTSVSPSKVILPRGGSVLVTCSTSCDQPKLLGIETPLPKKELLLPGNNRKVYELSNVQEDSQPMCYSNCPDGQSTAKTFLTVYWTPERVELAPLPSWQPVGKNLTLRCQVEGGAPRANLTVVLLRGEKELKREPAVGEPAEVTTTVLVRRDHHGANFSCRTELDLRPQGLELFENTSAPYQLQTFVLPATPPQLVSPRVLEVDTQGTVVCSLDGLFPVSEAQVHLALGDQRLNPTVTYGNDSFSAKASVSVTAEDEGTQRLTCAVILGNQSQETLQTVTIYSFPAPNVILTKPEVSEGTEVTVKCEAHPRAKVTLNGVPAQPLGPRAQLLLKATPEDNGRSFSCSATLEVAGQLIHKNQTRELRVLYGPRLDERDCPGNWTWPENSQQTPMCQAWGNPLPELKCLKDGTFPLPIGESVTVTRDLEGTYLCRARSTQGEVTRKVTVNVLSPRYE
Protocol: 96 well tissue culture plates were coated with 50 uL of a solution with 20 ug/mL recombinant soluble ICAM-1 in PBS for 1 hr at room temperature. Wells were then blocked with 1% BSA for 2 hr at 37 C. and washed four times with PBS. Antibodies (10 ug/mL) (anti-ICAM-1 164B, 18E3D, 84H10, anti-E selectin 1.2B6) and soluble MUC-1 (10 ug/mL) were added to the wells for 90 min. at room temperature. Wells were then washed again before addition of cells. BCECF labeled tumor cells were pretreated +/− 20 ug/mL of anti-MUC-1 (B27.29, or DF3P) and were then added to the appropriate wells for 40 min. at 37 C. Wells were then washed and percent adhesion was then determined as described in the tumor cell—endothelial cell adhesion assay.
To exclude the possibility that adhesion was being mediated by endothelial molecules other than ICAM-1, the adhesion of the MUC-1 transfectants was studied using immobilized recombinant human ICAM-1-Ig fusion protein. Adhesion was compared to Bovine Serum Albumin and Collagen type I as controls.

[4] = test system: Purified T cells; assay: T cell proliferation assay (allo MLR, 3H-thymidine incorporation); format: cell-based, human; settings: 10 ug/ml, allo PBL stimulated T cells
Protocol: Enriched T cell populations were purified from buffy coats obtained from normal red cross donors using nylon wool columns by previously reported procedures. […] For the allo MLR, mitomycin C treated allogeneic PBLs were cocultured with purified T cells in the presence or absence of affinity purified MUC-1 mucin or control OSM. In most of the experiments, the T cells were cultured 6-7 days in AIM V medium in the absence or presence of MUC-1, MUC-1 derivative or OSM at the indicated concentration. After this time, the T cells were harvested, washed and cultured as indicated.
Purified T cells (10^6/ml) were cultured in AIM V medium with allo PBLs in the absence or presence of MUC-1, MUC-1 derivative or OSM 10 ug/ml for 6-7 days. T cells were harvested and plated in 96 well flat bottom plates at 10^5/well with allo PBLs (10^5/well), in the presence or absence of affinity purified MUC-1, MUC-1 derivative or OSM. Control cultures were treated with either 50 U/ml IL-2 or 1 ug/ml anti-CD28 Mab. After 4 days of culture, ^3H-thymidine (1 uCi/well) was added. The cells were harvested on the fifth day and ^3H-thymidine incorporation was measured by liquid scintillation.
Synthetic peptides, as described in Example 8, corresponding to 3, 4, 5 or 6 MUC-1 repeats, were added at 10 ug/ml to allo cultures and T cell proliferation was measured at 14 days from the start of culture. […]

inhibition of GZHi adhesion to immobilized ICAM-1 [3]: equally effective at blocking adhesion
Substance: MUC-1: MAb B27.29 affinity purified human MUC-1 mucin from pleural effusion or ascites fluid of cancer patients
% Tumor Take [1]: 100%
inhibition of T-cell proliferation against a strong allo-antigenic stimulus [2]: strongly inhibits
reduction of T cell proliferation relative to control [4]: inhibition of T cell proliferation
